Data from the NIST ThermoML archive (doi:10.1021/je100089s).

Test: xn = mol fraction of the nth substance listed
Settings: Liquid, Vibrating tube method

OCCO [1,2-ethanediol] + C[S+](C)[O-]
mass density [kg/m3]
Settings	101 kPa	10000 kPa	25000 kPa	50000 kPa	75000 kPa	100000 kPa
278.15 K, x2 = 0	1123.77	1127.65	1133.2	1141.71	1149.55	1157.24
278.15 K, x2 = 0.00452	1123.78	–	–	–	–	–
278.15 K, x2 = 0.00721	1123.81	–	–	–	–	–
278.15 K, x2 = 0.0181	–	1127.79	1133.35	1141.89	1149.87	1157.59
278.15 K, x2 = 0.01811	1123.89	–	–	–	–	–
278.15 K, x2 = 0.03033	1123.98	–	–	–	–	–
278.15 K, x2 = 0.04027	1124.05	–	–	–	–	–
278.15 K, x2 = 0.0403	–	1127.98	1133.57	1142.21	1150.25	1158.01
278.15 K, x2 = 0.07007	1124.18	–	–	–	–	–
278.15 K, x2 = 0.0701	–	1128.13	1133.74	1142.44	1150.68	1158.48
278.15 K, x2 = 0.1097	1124.31	1128.3	1133.94	1142.73	1151.17	1159.03
278.15 K, x2 = 0.1408	1124.41	1128.43	1134.12	1142.98	1151.53	1159.45
278.15 K, x2 = 0.1934	1124.41	1128.44	1134.19	1143.24	1151.93	1159.97
278.15 K, x2 = 0.234	1124.34	1128.39	1134.22	1143.4	1152.14	1160.33
278.15 K, x2 = 0.3244	1124.05	1128.13	1134.17	1143.66	1152.48	1160.9
278.15 K, x2 = 0.3764	1123.76	1127.85	1134.01	1143.73	1152.55	1161.23
278.15 K, x2 = 0.4429	1123.28	1127.37	1133.7	1143.69	1152.53	1161.47
278.15 K, x2 = 0.4892	1122.88	1126.97	1133.44	1143.64	1152.45	1161.74
278.15 K, x2 = 0.5654	1122.14	1126.24	1132.95	1143.45	1152.24	1162
278.15 K, x2 = 0.6298	1121.26	–	–	–	–	–
278.15 K, x2 = 0.6946	1120.52	–	–	–	–	–
288.15 K, x2 = 0	–	1120.87	1126.51	1135.26	1143.65	1151.55
288.15 K, x2 = 0.0181	–	1120.9	1126.66	1135.53	1143.78	1151.74
288.15 K, x2 = 0.0403	–	1121	1126.79	1135.69	1144	1152.03
288.15 K, x2 = 0.0701	–	1121.06	1126.89	1135.92	1144.4	1152.42
288.15 K, x2 = 0.1097	–	1121.09	1126.97	1136.1	1144.77	1152.92
288.15 K, x2 = 0.1408	–	1121.09	1127.02	1136.28	1145.05	1153.32
288.15 K, x2 = 0.1934	–	1121	1127.02	1136.35	1145.29	1153.81
288.15 K, x2 = 0.234	–	1120.87	1127.02	1136.51	1145.4	1154.03
288.15 K, x2 = 0.3244	1115.95	1120.42	1126.73	1136.43	1145.62	1154.61
288.15 K, x2 = 0.3764	1115.49	1119.99	1126.45	1136.4	1145.68	1154.78
288.15 K, x2 = 0.4429	1114.8	1119.41	1126.08	1136.29	1145.64	1154.83
288.15 K, x2 = 0.4892	1114.25	1118.92	1125.69	1136.07	1145.55	1154.79
288.15 K, x2 = 0.5654	1113.29	1118.05	1125.01	1135.67	1145.31	1154.87
288.15 K, x2 = 0.6298	1112.27	–	–	–	–	–
288.15 K, x2 = 0.6946	1111.32	1116.19	1123.4	1134.56	1144.55	1154.68
288.15 K, x2 = 0.8142	1109.13	–	–	–	–	–
298.15 K, x2 = 0	–	1113.97	1119.78	1128.78	1137.41	1145.51
298.15 K, x2 = 0.0181	–	1114	1119.85	1128.92	1137.62	1145.75
298.15 K, x2 = 0.0403	–	1114.01	1119.92	1129.12	1137.93	1145.93
298.15 K, x2 = 0.0701	–	1114.01	1119.95	1129.25	1138.31	1146.24
298.15 K, x2 = 0.1097	–	1113.67	1119.88	1129.29	1138.51	1146.54
298.15 K, x2 = 0.1408	1109.42	1113.44	1119.71	1129.45	1138.73	1146.83
298.15 K, x2 = 0.1934	1109.06	1112.87	1119.4	1129.48	1138.98	1147.29
298.15 K, x2 = 0.234	1108.72	1112.42	1119.03	1129.27	1139.19	1147.46
298.15 K, x2 = 0.3244	1107.82	1111.54	1118.39	1128.95	1139.38	1147.77
298.15 K, x2 = 0.3764	1107.21	1110.95	1117.96	1128.79	1139.43	1147.93
298.15 K, x2 = 0.4429	1106.29	–	–	1128.43	1139.4	1148.01
298.15 K, x2 = 0.4892	1105.6	1109.49	–	1128.14	1139.31	1147.94
298.15 K, x2 = 0.5654	1104.44	1108.61	1116.04	1127.67	1139.23	1147.85
298.15 K, x2 = 0.6946	1102.13	1106.65	1114.43	1126.58	1138.74	1147.55
298.15 K, x2 = 0.8142	1099.6	1104.54	1112.6	1125.27	1137.98	1146.87
298.15 K, x2 = 0.867	1098.37	–	–	–	–	–
298.15 K, x2 = 0.9266	1097.09	–	1110.81	1123.79	1137.07	1146.03
298.15 K, x2 = 0.9836	–	1101.52	–	1123.02	–	–
298.15 K, x2 = 0.9968	1095.42	–	–	–	–	–
308.15 K, x2 = 0	–	1107.05	1112.97	1122.28	1131.41	1139.57
308.15 K, x2 = 0.0181	–	1107.03	1113.01	1122.41	1131.6	1139.78
308.15 K, x2 = 0.0403	–	1106.95	1112.98	1122.46	1131.72	1139.87
308.15 K, x2 = 0.07007	1102.45	–	–	–	–	–
308.15 K, x2 = 0.0701	–	1106.68	1112.81	1122.47	1131.86	1140.08
308.15 K, x2 = 0.1097	1102.12	1106.18	1112.54	1122.52	1132.17	1140.24
308.15 K, x2 = 0.1408	1101.88	1105.87	1112.37	1122.47	1132.33	1140.54
308.15 K, x2 = 0.1934	1101.33	1105.29	1111.97	1122.32	1132.37	1140.74
308.15 K, x2 = 0.234	1100.86	1104.74	1111.63	1122.23	1132.39	1140.88
308.15 K, x2 = 0.3244	1099.65	1103.53	1110.76	1121.85	1132.45	1140.94
308.15 K, x2 = 0.3764	1098.89	–	–	1121.58	1132.41	1140.97
308.15 K, x2 = 0.4429	1097.76	1101.57	1109.29	1121.09	1132.2	1140.85
308.15 K, x2 = 0.4892	1096.94	1100.74	1108.61	1120.71	1132.04	1140.71
308.15 K, x2 = 0.5654	–	1099.47	1107.59	1120.07	1131.68	1140.47
308.15 K, x2 = 0.6298	1094.18	–	–	–	–	–
308.15 K, x2 = 0.6946	1092.91	1097.4	1105.69	1118.74	1130.89	1139.72
308.15 K, x2 = 0.8142	1090.07	1094.91	1103.81	–	1129.86	1138.6
308.15 K, x2 = 0.9266	1087.25	1092.99	1101.96	1115.8	1128.85	1137.41
308.15 K, x2 = 0.9577	1086.43	–	–	–	–	–
308.15 K, x2 = 0.9836	1085.76	1091.87	1100.89	1115.04	1128.14	1136.73
308.15 K, x2 = 0.992	1085.53	–	–	–	–	–
308.15 K, x2 = 0.9968	1085.39	–	–	–	–	–
323.15 K, x2 = 0	1092.12	–	–	1112.75	1122.55	1130.66
323.15 K, x2 = 0.00452	1092.05	–	–	–	–	–
323.15 K, x2 = 0.00721	1092.03	–	–	–	–	–
323.15 K, x2 = 0.0181	–	–	–	1112.77	1122.62	1130.77
323.15 K, x2 = 0.01811	1091.95	–	–	–	–	–
323.15 K, x2 = 0.03033	1091.83	–	–	–	–	–
323.15 K, x2 = 0.04027	1091.72	–	–	–	–	–
323.15 K, x2 = 0.0403	–	–	–	1112.8	1122.72	1130.87
323.15 K, x2 = 0.07007	1091.39	–	–	–	–	–
323.15 K, x2 = 0.0701	–	–	1102.37	1112.82	1122.84	1130.96
323.15 K, x2 = 0.1097	1090.85	1095.4	1102.05	1112.71	1122.87	1131
323.15 K, x2 = 0.1408	1090.44	1095	1101.79	1112.64	1122.91	1131.06
323.15 K, x2 = 0.1934	1089.61	1094.25	1101.25	1112.4	1122.85	1130.99
323.15 K, x2 = 0.234	–	1093.65	1100.8	1112.23	1122.77	1130.94
323.15 K, x2 = 0.3244	1087.33	1092.16	1099.69	1111.61	1122.44	1130.63
323.15 K, x2 = 0.3764	1086.33	1091.26	1098.98	1111.18	1122.18	1130.38
323.15 K, x2 = 0.4429	1084.93	1090	1097.94	1110.52	1121.69	1129.92
323.15 K, x2 = 0.4892	1083.92	–	1097.2	–	1121.34	1129.57
323.15 K, x2 = 0.5654	1082.23	1087.55	–	1109.22	1120.75	1128.99
323.15 K, x2 = 0.6298	1080.61	–	–	–	–	–
323.15 K, x2 = 0.6946	1079.07	1084.73	1093.6	1107.58	1119.48	1127.72
323.15 K, x2 = 0.8142	1075.74	1081.78	1091.06	1105.68	1117.9	1126.09
323.15 K, x2 = 0.867	1074.15	–	–	–	–	–
323.15 K, x2 = 0.9266	1072.5	1078.85	–	1103.78	1116.27	1124.43
323.15 K, x2 = 0.9577	1071.55	–	–	–	–	–
323.15 K, x2 = 0.9836	1070.76	1077.32	1087.21	–	1115.35	1123.49
323.15 K, x2 = 0.992	1070.5	–	–	–	–	–
323.15 K, x2 = 0.9968	1070.35	–	–	–	–	–
